Measurements taken from US11246868B2, “Treatment of hippo pathway mutant tumors and methods of identifying subjects as candidates for treatment” (ICAHN SCHOOL OF MEDICINE AT MOUNT SINAI, priority 2016, dated 2022).
“Also recorded” adds a separate entry of the source. Blank lines part the entries; values can stand above or below the compound they belong to.

What was measured:
[1] = tested on: TEAD transcriptional activity; experiment: TEAD luciferase reporter assay; assay type: cell-based, human; conditions: for TEAD reporter activity: 293T and H2373 cells, 24 hours, comparison of TNKS and PARP1/2 inhibitors
Description: A set of in-house kinase and commercially available inhibitors was used to screen for effects on the TEAD luciferase reporter. 293 cells expressing the TEAD reporter along with renilla-lucifease (20:1 ratio) were plated at low density (2×10^4 cells) in 24 well plates in triplicate. 24 hours after plating, the cells were treated with 10 μM of each compound or DMSO as control. 24 hours later, dual-luciferase reporter assay was performed according to the manufacturer's protocol (Promega, Madison Wis., USA), using TD-20e Luminometer (Turner Biosystem, Promega, Madison Wis., USA). TEAD reporter activity was normalized to renilla luciferase. The Log 2 values were calculated for each compound using the DMSO sample as control.

[2] = tested on: TEAD target genes (CTGF, CYR61, ANKRD1); experiment: Quantitative RT-PCR of TEAD target genes; assay type: cell-based, human; conditions: for TEAD target gene expression (CTGF, CYR61, ANKRD1 mRNA): 293T and H2373 cells, 10 μM
Description: (§1) Total RNA was extracted from cells using the RNeasy Mini kit (Qiagen, Hilden, Germany) following the manufacturer's instructions. 1 μg of total RNA was used for cDNA synthesis using Superscript II (Invitrogen, Carlsbad, Calif., USA) according to the manufacturer's instructions.
(§2) Quantitative RT-PCR was performed using the ViiA™ 7 Real-Time PCR System (Life Technologies, Carlsbad, Calif., USA) using the FastStart SYBR Green Master mix (Roche, Indianapolis, Ind., USA). Primers were as follows: […]
(§3) PCR was performed in 384 well plates in 10 μl total volumes under the following conditions: 95° C. for 15 min, followed by 40 cycles of 94° C. for 15 sec, 61° C. for 30 sec, and 72° C. for 30 sec. Specificity was verified by a dissociation curve. Results were analyzed with ViiA7 RUO software (Life Technologies, Carlsbad, Calif., USA). Gene expression levels were normalized to GAPDH expression.

H2373 cells = experiment: Clonogenic proliferation (colony formation) assay, H2373; assay type: cell-based, human; conditions: for proliferation / colony formation: H2373 cells (NF2 mutant), 10 to 14 days
Description: (§6) For clonogenic proliferation assay, cells were plated in triplicate at 1×10^3 cells in 6-well plates. For analysis of the effects of inhibitors on cell proliferation, fresh medium with inhibitor was replaced every 48 hours. After 10 to 14 days of treatment, cultures were fixed and stained with 1% crystal violet (in ethanol) and photographed.

293T cells = experiment: Clonogenic proliferation (colony formation) assay, 293T; assay type: cell-based, human; conditions: 10 to 14 days
Description: as §6

[3] = tested on: AMOT, AMOTL1, AMOTL2 mRNA; experiment: qRT-PCR of angiomotin mRNA levels; assay type: cell-based, human; conditions: 293T and H2373 cells, 10 μM, 24 hours
Description: as §1, §2, §3

[4] = tested on: angiomotin proteins (AMOT, AMOTL2); experiment: Western blot of angiomotin protein levels; assay type: cell-based, human; conditions: 10 μM; for angiomotin protein levels (AMOT in 293T, AMOTL2 in H2373): 293T and H2373 cells
Description: (§4) Cells were harvested in EBC lysis buffer (50 mM Tris-HCl at pH 7.5, 150 mM NaCl, 5 mM EDTA, 0.5% NP-40), supplemented with Complete Mini Protease and Phosphatase Inhibitor Cocktails (Roche, Indianapolis, Ind., USA). Cells were lysed and 30-80 μg protein subjected to SDS-PAGE followed by transfer onto an Immobilon-FL PVDF membrane (Millipore, Billerica, Mass., USA) and incubation with the indicated antibodies. Detection was carried out with an Odyssey Infrared Imaging System (LI-COR Biosciences, Lincoln, Nebr., USA) with IR dye-tagged secondary antibodies (LI-COR Biosciences). The following antibodies were utilized: mouse anti-YAP, goat anti-NF2, mouse anti-AMOT, goat anti-AMOTL1, goat anti-AMOTL2 (Santa Cruz, Dallas, Tex., USA), mouse anti-FlagM2 (Sigma, Saint Louis, Mo., USA), rabbit anti-LATS1, rabbit anti-LATS2, rabbit anti-p-YAP (Cell Signaling, Danvers, Mass., USA), TNKS1/2 (Santa Cruz, Dallas, Tex., USA), mouse anti-TEAD4, mouse anti-RAS (Thermo Scientific, Waltham, Mass., USA), mouse anti-α-Tubulin, mouse anti-β-actin (Sigma, Saint Louis, Mo., USA).

angiomotin = conditions: reported by Wang et al. 2015; cited from earlier work
[5] = tested on: Hippo pathway mutant tumor cells and Hippo pathway wild-type cells; experiment: Cell cycle profile by Propidium Iodide staining; assay type: cell-based, human; conditions: 10 μM, 72 hours
From the text: Statistical analysis of the cell cycle profile is shown below. Error bars indicate SD of experiments performed in triplicate.

[6] = tested on: MCF10A cells stably expressing HRAS-V12; experiment: Anchorage-independent growth assay, HRAS-V12-transformed MCF10A; assay type: cell-based, human; conditions: MCF10A stably expressing HRAS-V12, 3 weeks
Description: (§5) Cells were fed every 4 days for 3 weeks by adding 0.2 mL of growth medium containing either 0.1% DMSO as a control or compounds in 0.1% DMSO at the concentrations indicated.

PTEN = experiment: Western blot of PTEN levels; assay type: cell-based, human; conditions: H2052 and H2373 cells, 10 μM, time course
Description: as §4

AMOT-YAP protein complex = experiment: Co-immunoprecipitation of endogenous AMOT and YAP; assay type: cell-based, human; conditions: 293T cells, 10 μM, 24 hours
Description: Cells were harvested in RIPA lysis buffer (50 mM Tris-Cl; pH 8.0, 5 mM EDTA, 1% Triton X-100, 0.1% sodium deoxycholate, 0.1% SDS, 150 mM NaCl) supplemented with Complete Mini Protease and Phosphatase Inhibitor Cocktails. 800 μg proteins were incubated with 10 μg of antibody overnight at 4° C. Anti-mouse or anti-rabbit IgG (Santa Cruz, Dallas, Tex., USA) was used as a negative control. Immunoprecipitated complexes were captured by 2 h incubation at 4° C. with Dynabeads Protein A/G B (Invitrogen, Carlsbad, Calif., USA), followed by three washes in lysis buffer. Immunoprecipitated complexes were eluted by boiling for 5 min with Laemmli buffer (150 mM Tris-Cl; pH 6.8, 20% glycerol, 4% SDS, 0.002% bromophenol blue, 2% 2-mercaptoethanol) with 10% of the total lysates run on the same gel for comparative immunoblot analysis.

YAP S127 phosphorylation = experiment: Western blot of YAP S127 phosphorylation; assay type: cell-based, human; conditions: H2373 cells, varying XAV939 concentrations, 24 hours
Description: as §4

YAP = experiment: Immunofluorescence of YAP sub-cellular localization; assay type: cell-based, human; conditions: 24 hours
Description: Cells cultured on glass coverslips were fixed for 10 min with 4% paraformaldehyde in 1×PBS at 37° C. and permeabilized for 3 min with 0.02% Triton-X100, following exposure for 1 hour to a blocking solution (PBS containing 5% BSA). Coverslips were then incubated at room temperature with the following primary antibodies: anti-YAP (Santa Cruz, Dallas, Tex., USA) and anti-Flag M2 (Sigma, Saint Louis, Mo., USA). Corresponding secondary antibodies were Alexa fluor conjugated (Molecular Probes, Eugene, Oreg., USA). 2 μg/ml DAPI was used as a counter stain and was used to label nuclei. Imaging was performed using an Axioplan 2 Imaging System (Zeiss, Oberkochen, Germany).

[7] = tested on: YAP overexpressing MCF10A cells; conditions: cited from earlier work
[8] = tested on: liver tumor growth induced by YAP overexpression or NF2 inactivation; conditions: mice, tumors induced by YAP overexpression or NF2 inactivation; cited from earlier work
[9] = tested on: MCF10A cells stably expressing YAP-WT or YAP-S127A; experiment: Anchorage-independent growth assay, YAP-transformed MCF10A; assay type: cell-based, human; conditions: 3 weeks
Description: as §5

TEAD reporter activity [1]: did not affect
Compound: C[C@]1(c2nc3c(C(N)=O)cccc3[nH]2)CCCN1 [ABT-888]
TEAD target gene expression (CTGF, CYR61, ANKRD1 mRNA) ([2]; 24 hours): did not affect
proliferation / colony formation (H2373 cells): did not affect
proliferation / colony formation (293T cells): did not affect
AMOT, AMOTL1, AMOTL2 mRNA levels [3]: lacked any effect
angiomotin protein levels (AMOT in 293T, AMOTL2 in H2373) ([4]; 24 hours): lacked any effect

TEAD reporter activity [1]: able to inhibit
Compound: O=C(Nc1cccc2cccnc12)c1ccc(N2C(=O)[C@@H]3[C@H](C2=O)[C@@H]2C=C[C@H]3C2)cc1 [IWR1]
TEAD target gene expression (CTGF, CYR61, ANKRD1 mRNA) ([2]; 24 hours): able to inhibit
proliferation / colony formation (H2373 cells): significantly decreased
AMOT, AMOTL1, AMOTL2 mRNA levels [3]: did not markedly affect
angiomotin protein levels (AMOT in 293T, AMOTL2 in H2373) ([4]; 24 hours): strikingly increased

TEAD reporter activity [1]: able to inhibit
Compound: CC(C)c1ccc(-c2cc(=O)c3ccccc3o2)cc1 [MN-64]
TEAD target gene expression (CTGF, CYR61, ANKRD1 mRNA) ([2]; 24 hours): able to inhibit
proliferation / colony formation (H2373 cells): significantly decreased
AMOT, AMOTL1, AMOTL2 mRNA levels [3]: did not markedly affect
angiomotin protein levels (AMOT in 293T, AMOTL2 in H2373) ([4]; 24 hours): strikingly increased

Compound: Oc1nc(-c2ccc(C(F)(F)F)cc2)nc2c1CSCC2 [XAV939]
inhibitory effect on TEAD transcriptional activity under AMOTL2 silencing ([1]; H2373 cells, doxycycline-inducible AMOTL2 shRNA, 10 μM XAV939): almost completely rescued
angiomotin stabilization (angiomotin): stabilized
cell cycle profile ([5]; cell lines which were not growth inhibited): no detectable cell cycle alteration
cell cycle profile ([5]; tumor lines whose proliferation was inhibited): increased G1 and reduced S phase fractions
HRAS-V12-induced agar colony formation [6]: lacked any effect; also recorded: not inhibited
expression of TEAD target genes (CTGF, CYR61, ANKRD1 mRNA) ([2]; H2052 cells, 24 hours): only modestly affected
expression of TEAD target genes ([2]; MCF10A cells stably overexpressing YAP-S127A): inhibited
expression of TEAD target genes (CTGF, CYR61, ANKRD1 mRNA) ([2]; all cell lines tested with the exception of H2052, 24 hours): markedly decreased
levels of PTEN (PTEN): increased modestly
AMOT-YAP protein complex (AMOT-YAP protein complex): enrichment
inhibitory effect on colony formation under AMOTL2 silencing (H2373 cells; H2373 cells, doxycycline-inducible AMOTL2 shRNA, 10 μM XAV939, 14 days): almost completely rescued
YAP S127 phosphorylation status (YAP S127 phosphorylation): did not show any significant differences
YAP sub-cellular localization (YAP; H2373 cells, endogenous YAP): induced YAP re-localization to the cytoplasm
YAP-S127A sub-cellular localization (YAP; MCF10A stably expressing YAP-S127A): significant shift of YAPS127A to the cytoplasm
acini formation in matrigel [7]: inhibited
AMOT, AMOTL1, AMOTL2 mRNA levels [3]: did not markedly affect
angiomotin protein levels (AMOT in 293T, AMOTL2 in H2373) ([4]; 24 hours): strikingly increased
AMOTL2 protein levels ([4]; H2052 cells, 24 hrs): increased
AMOTL2 protein levels, time course ([4]; H2373 as compared to resistant H2052 cells, 12 days): stabilized higher, durable levels
AMOTL2 levels ([4]; Hippo mutant MESO25 and 211H cells, 24 hours): Increased
durable stabilization of AMOTL2 ([4]; resistant H2052 cells): failed to durably stabilize

Compound: verteporfin
liver tumor growth [8]: suppressed
HRAS-V12-induced agar colony formation [6]: completely blocked
YAP-WT- and YAP-S127A-induced anchorage-independent cell growth (soft agar colonies) [9]: completely blocked
